Measured values as given in patent US8765779B2, “Tricyclic derivatives and their pharmaceutical use and compositions” (Cephalon, Inc., priority 2009, dated 2014).
Where a name gives a salt, the structure may show the parent alone.

Biological target: T1, human 5-HT6 receptor (Homo sapiens, UniProt P50406)
T1 construct: host or cells: CHO-K1 cells, stably transfected; membranes prepared in house
Experiment: Human 5-HT6 Receptor Binding Assay ([3H]LSD displacement, scintillation beads)
Settings: membranes of CHO-K1 cells with recombinant human 5-HT6, 4 nM [3H]LSD; Table 1, class symbols; read-out: h5-HT6 (Ki)

T1 sequence (P50406 whole entry): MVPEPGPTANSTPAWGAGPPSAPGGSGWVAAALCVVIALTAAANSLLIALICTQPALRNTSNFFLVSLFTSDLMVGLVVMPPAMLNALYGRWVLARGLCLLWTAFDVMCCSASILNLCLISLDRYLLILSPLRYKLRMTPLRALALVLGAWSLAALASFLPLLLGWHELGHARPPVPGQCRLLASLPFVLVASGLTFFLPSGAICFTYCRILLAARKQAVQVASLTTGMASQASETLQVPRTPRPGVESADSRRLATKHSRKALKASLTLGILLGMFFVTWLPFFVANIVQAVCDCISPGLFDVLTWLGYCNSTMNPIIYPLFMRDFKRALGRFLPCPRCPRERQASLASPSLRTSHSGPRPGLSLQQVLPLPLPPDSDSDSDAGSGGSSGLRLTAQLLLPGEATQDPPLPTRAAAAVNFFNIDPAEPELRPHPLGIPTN

| SMILES | Ki |
| --- | --- |
| Cc1c(S(=O)(=O)Oc2ccc3c(c2)C2(C)CCNCC2O3)sc2ccc(Cl)cc12 (stereo not drawn) [Example 783] | 500 to 1000 nM |
| COc1ccc(S(=O)(=O)c2ccc3c4c(oc3c2)CNCC4)cc1 [Example 198] | < 500 nM |
| O=S(=O)(c1ccc2c3c(oc2c1)CNCC3)c1ccccc1-c1ccccc1 [Example 232] | < 500 nM |
| O=S(=O)(c1ccc2c(c1)C1CCNCC1O2)c1cccc(Cl)c1Cl (stereo not drawn) [Example 176] | < 500 nM |
| CC(C)Oc1cc(OC(CO)CCl)cc(S(=O)(=O)c2ccc3c(c2)OC2CNCCC32)c1 (stereo not drawn) [Example 589] | < 500 nM |
| Cc1c(Cl)cccc1S(=O)(=O)Oc1ccc2c(c1)C1CCNCC1O2 (stereo not drawn) [Example 717] | < 500 nM |
| Cc1c(Cl)cccc1S(=O)(=O)Oc1ccc2c(c1)C1(C)CCNCC1O2 (stereo not drawn) [Example 767] | > 1000 nM |
| CC(C)Oc1cc(F)cc(S(=O)(=O)c2ccc3c(c2)OC2CNCCC32C)c1 (stereo not drawn) [Example 427] | < 500 nM |
| COCCCOc1cccc(S(=O)(=O)c2ccc3c(c2)OC2CNCCC32)c1 (stereo not drawn) [Example 576] | < 500 nM |
| Cc1nc(S(=O)(=O)Oc2ccc3c(c2)OC2CNCCC32)cn1C (stereo not drawn) [Example 645] | > 1000 nM |
| O=S(=O)(Oc1ccc2c(c1)C1CCNCC1O2)c1ccccc1C(F)(F)F (stereo not drawn) [Example 736] | > 1000 nM |
| Cc1cccc([S+]([O-])c2ccc3c(c2)OC2CNCCC32)n1 (stereo not drawn) [Example 327] | > 1000 nM |
| CC1(C2CC2)NCCc2c1oc1cc(S(=O)(=O)c3cccc(F)c3)ccc21 (racemic) [Example 29, 1-cyclopropyl-7-[(3-fluorophenyl)sulfonyl]-1-methyl-1,2,3,4-tetrahydro[1]benzofuro[2,3-c]pyridine] | < 500 nM |
| CC(C)Oc1cccc(S(=O)(=O)c2ccc3c(c2)OC2CNCCC32C)c1 (racemic) [Example 12, 4a-methyl-7-{[3-(propan-2-yloxy)phenyl]sulfonyl}-1,2,3,4,4a,9a-hexahydro[1]benzofuro[2,3-c]pyridine] | < 500 nM |
| CC12CCNCC1Oc1cc(S(=O)(=O)c3cccc4c3OCCO4)ccc12 (stereo not drawn) [Example 468] | < 500 nM |
| CC(=O)NCC1NCCc2c1oc1cc(S(=O)(=O)c3cccc(F)c3)ccc21 (racemic) [Example 535, N-({7-[(3-fluorophenyl)sulfonyl]-1,2,3,4-tetrahydro[1]benzofuro[2,3-c]pyridin-1-yl}methyl)acetamide] | < 500 nM |
| O=S(=O)(c1ccc(Cl)c(C(F)(F)F)c1)c1ccc2c3c(oc2c1)CNCC3 [Example 210] | < 500 nM |
| [O-][S+](c1cncc(F)c1)c1ccc2c(c1)OC1CNCCC21 (stereo not drawn) [Example 396] | > 1000 nM |
| O=S(=O)(Nc1ccccc1Cl)c1ccc2c(c1)C1CCNCC1O2 (stereo not drawn) [Example 840] | > 1000 nM |
| CC1(C)CNC2(CCOC2)c2oc3cc(S(=O)(=O)c4ccccc4)ccc3c21 (stereo not drawn) [Example 295] | < 500 nM |
| O=S(=O)(Oc1ccc2c(c1)C1CCNCC1O2)c1cccc2ccccc12 (stereo not drawn) [Example 720] | < 500 nM |

| SMILES | Ki |
| --- | --- |
| CN(C)c1cccc(S(=O)(=O)c2ccc3c4c(oc3c2)CNCC4)c1 [Example 347] | < 500 nM |
| COc1cc(OC)cc(S(=O)(=O)c2ccc3c(c2)OC2CNCCC32C)c1 (stereo not drawn) [Example 489] | < 500 nM |
| O=S(=O)(c1cccc(OCC2CC2)c1)c1ccc2c(c1)OC1CNCCC21 (stereo not drawn) [Example 555] | < 500 nM |
| COc1ccccc1S(=O)(=O)c1ccc2c(c1)OC1CNCCC21C (racemic) [Example 3, 7-[(2-methoxyphenyl)sulfonyl]-4a-methyl-1,2,3,4,4a,9a-hexahydro[1]benzofuro[2,3-c]pyridine] | < 500 nM |
| O=S(=O)(Oc1ccc2c(c1)C1CCNCC1O2)c1ccc(F)cc1 (stereo not drawn) [Example 702] | > 1000 nM |
| O=S(=O)(c1ccc(-c2ccccc2)cc1)c1ccc2c3c(oc2c1)CNCC3 [Example 228] | 500 to 1000 nM |
| O=S(=O)(c1ccc2c3c(oc2c1)CNCC3)c1cccc2cccnc12 [Example 346] | < 500 nM |
| CC(C)C1NCCc2c1oc1ccc(S(=O)(=O)c3cccc(F)c3)cc21 (stereo not drawn) [Example 512] | < 500 nM |
| O=S(=O)(c1ccc(Cl)c(Cl)c1)c1ccc2oc3c(c2c1)CCNC3 [Example 261, 6-[(3,4-dichlorophenyl)sulfonyl]-1,2,3,4-tetrahydro[1]benzofuro[2,3-c]pyridine] | < 500 nM |
| COCC1(C)NCCc2c1oc1cc(S(=O)(=O)c3cccc(F)c3)ccc21 (stereo not drawn) [Example 634] | < 500 nM |
| CC12CCNCC1Oc1ccc(OS(=O)(=O)Cc3ccccc3F)cc12 (stereo not drawn) [Example 786] | < 500 nM |
| COc1ccc(S(=O)(=O)c2ccc3c4c(oc3c2)C(C)(C)NCC4)cc1F [Example 288] | < 500 nM |
| CC(=O)N(C)CC1NCCc2c1oc1cc(S(=O)(=O)c3cccc(F)c3)ccc21 (racemic) [Example 537, N-({7-[(3-fluorophenyl)sulfonyl]-1,2,3,4-tetrahydro[1]benzofuro[2,3-c]pyridin-1-yl}methyl)-N-methylacetamide] | < 500 nM |
| COc1cncc(S(=O)(=O)c2ccc3c4c(oc3c2)C(C)(C)NCC4)c1 [Example 370] | < 500 nM |
| O=S(=O)(c1ccc2c3c(oc2c1)CNCC3)c1cccc(Cl)c1Cl [Example 196, 7-[(2,3-dichlorophenyl)sulfonyl]-1,2,3,4-tetrahydro[1]benzofuro[2,3-c]pyridine] | < 500 nM |
| COc1cccc(S(=O)(=O)Oc2ccc3c(c2)OC2CNCCC32)c1 (stereo not drawn) [Example 651] | < 500 nM |
| COc1c(F)cc(F)cc1S(=O)(=O)c1ccc2c(c1)OC1CNCCC21 (stereo not drawn) [Example 463] | < 500 nM |
| CC(=O)NCC1NCCc2c1oc1cc(S(=O)(=O)c3cccc(Cl)c3)ccc21 (racemic) [Example 539, N-({7-[(3-chlorophenyl)sulfonyl]-1,2,3,4-tetrahydro[1]benzofuro[2,3-c]pyridin-1-yl}methyl)acetamide] | < 500 nM |
| Cc1cc(C)cc(S(=O)(=O)Oc2ccc3c(c2)C2CCNCC2O3)c1 (stereo not drawn) [Example 705] | < 500 nM |
| O=S(=O)(c1ccccc1)c1ccc2c(c1)OC1CNCCC21 (stereo not drawn) [Example 326, 7-(phenylsulfonyl)-1,2,3,4,4a,9a-hexahydro[1]benzofuro[2,3-c]pyridine] | < 500 nM |
| CC(C)c1ccc(S(=O)(=O)Oc2ccc3c(c2)OC2CNCCC32)cc1 (stereo not drawn) [Example 795] | < 500 nM |

The next lines start with the values.

| Ki | SMILES |
| --- | --- |
| < 500 nM | CC(C)Oc1ncccc1[S+]([O-])c1ccc2oc3c(c2c1)CCNC3 (stereo not drawn) [Example 446] |
| < 500 nM | O=S(=O)(c1cc(F)cc(OCC(F)(F)F)c1)c1ccc2c(c1)OC1CNCCC21 (stereo not drawn) [Example 415] |
| < 500 nM | Cc1ccc(C)c(S(=O)(=O)Nc2ccc3c(c2)C2CCNCC2O3)c1 (stereo not drawn) [Example 820, N-(1,2,3,4,4a,9a-hexahydro[1]benzofuro[2,3-c]pyridin-6-yl)-2,5-dimethylbenzenesulfonamide] |
| < 500 nM | COCCCOc1cc(OC(C)C)cc(S(=O)(=O)c2ccc3c(c2)OC2CNCCC32)c1 (stereo not drawn) [Example 588] |
| < 500 nM | O=S(=O)(c1ccccc1)c1ccc2c3c(oc2c1)CN(CCc1ccccc1)CC3 [Example 596] |
| > 1000 nM | O=S(=O)(Nc1ccccc1F)c1ccc2c(c1)C1CCNCC1O2 (stereo not drawn) [Example 839] |
| < 500 nM | CC(C)Oc1ncccc1S(=O)(=O)c1ccc2oc3c(c2c1)CCNC3 [Example 449] |
| < 500 nM | O=S(=O)(c1ccc2c(c1)OC1CNCCC21)c1cccc(Cl)c1Cl (stereo not drawn) [Example 156] |
| > 1000 nM | CC(C)c1ccc(S(=O)(=O)Nc2ccc3c(c2)C2CCNCC2O3)cc1 (stereo not drawn) [Example 824] |
| < 500 nM | O=S(=O)(c1ccc(F)c(F)c1)c1ccc2oc3c(c2c1)CCNC3 [Example 240] |
| < 500 nM | O=S(=O)(c1cc(F)cc(F)c1)c1ccc2c(c1)OC1CNCCC21 (stereo not drawn) [Example 164] |
| > 1000 nM | O=[N+]([O-])c1ccc(S(=O)(=O)c2cccc3c2OC2CNCCC32)cc1 (stereo not drawn) [Example 190] |
| < 500 nM | CC1NCCc2c1oc1ccc(S(=O)(=O)c3cccc(F)c3)cc21 (stereo not drawn) [Example 283] |
| < 500 nM | O=S(=O)(c1ccc(Cl)c(Cl)c1)c1ccc2c(c1)C1CCNCC1O2 (stereo not drawn) [Example 172] |
| < 500 nM | CC1(C)NCCc2c1oc1cc(S(=O)(=O)c3cccc4c3OCCO4)ccc21 [Example 466] |
| < 500 nM | O=S(=O)(c1ccccc1)c1ccc2c(c1)OC1CN(C3CCC3)CCC21 (stereo not drawn) [Example 606, 2-Cyclobutyl-7-(phenylsulfonyl)-1,2,3,4,4a,9a-hexahydro[1]benzofuro[2,3-c]pyridine trifluoroacetic acid salt] |
| < 500 nM | O=S(=O)(Oc1ccc2c(c1)C1CCNCC1O2)c1c(Cl)cccc1Cl (stereo not drawn) [Example 741] |
| < 500 nM | CC(C)Oc1cccc(S(=O)(=O)c2ccc3c(c2)OC2CNCCC32)c1 (stereo not drawn) [Example 136] |
| > 1000 nM | O=S(=O)(Oc1ccc2c(c1)C1CCNCC1O2)c1ccc(-c2cnco2)cc1 (stereo not drawn) [Example 734] |
| < 500 nM | O=S(=O)(Oc1ccc2c(c1)OC1CNCCC21)c1ccccc1C(F)(F)F (stereo not drawn) [Example 674] |
| < 500 nM | O=S(=O)(Oc1ccc2c(c1)OC1CNCCC21)c1ccc(F)cc1 (stereo not drawn) [Example 644] |
| < 500 nM | Cc1cc(C)cc(S(=O)(=O)Oc2ccc3c(c2)OC2CNCCC32)c1 (stereo not drawn) [Example 648] |
| < 500 nM | O=S(=O)(c1ccccc1)c1ccc2c3c(oc2c1)C1(CCCOC1)NCC3 (single isomer, unassigned) [Example 543, 7-(Phenylsulfonyl)-3,4,5′,6′-tetrahydro-2H,4′H-spiro[1-benzofuro[2,3-c]pyridine-1,3′-pyran]hydrochloride] |
| < 500 nM | O=S(=O)(c1cccc(OCC2CCOCC2)c1)c1ccc2c(c1)OC1CNCCC21 (stereo not drawn) [Example 581, 7-{[3-(tetrahydro-2H-pyran-4-ylmethoxy)phenyl]sulfonyl}-1,2,3,4,4a,9a-hexahydro[1]benzofuro[2,3-c]pyridine] |
| < 500 nM | O=S(=O)(c1cccc(OC2CCOCC2)c1)c1ccc2c(c1)OC1CNCCC21 (stereo not drawn) [Example 571] |
| < 500 nM | CC(C)Oc1cccc(S(=O)(=O)c2ccc3c4c(oc3c2)C2(CCC2)NCC4)c1 [Example 26, 7-{[3-(propan-2-yloxy)phenyl]sulfonyl}-3,4-dihydro-2H-spiro[1-benzofuro[2,3-c]pyridine-1,1′-cyclobutane]] |

Same assay, conditions: membranes of CHO-K1 cells with recombinant human 5-HT6, 4 nM [3H]LSD; specific data; read-out: h5-HT6 (Ki)

| SMILES | Ki |
| --- | --- |
| Cc1ccc(C)c(S(=O)(=O)Nc2ccc3c(c2)C2CCNCC2O3)c1 (stereo not drawn) [Example 820, N-(1,2,3,4,4a,9a-hexahydro[1]benzofuro[2,3-c]pyridin-6-yl)-2,5-dimethylbenzenesulfonamide] | 472 nM |
